Consider 34 compounds from patent publication US7932270B2 (Cytokinetics, Inc., priority 2006, dated 2011).

In the test the target is T1, chicken gizzard smooth muscle myosin subfragment-1 chemically crosslinked to cardiac or skeletal actin (Gallus gallus, UniProt P10587).
T1 construct: chicken gizzard smooth muscle myosin subfragment-1; from tissue; host or cells: chicken gizzard
As to the kind of experiment: Smooth muscle myosin ATPase dose response assay (pyruvate kinase/horseradish peroxidase/pyruvate oxidase-coupled, amplex red fluorescence). The conditions noted are these: read-out: IC50 Arithmetic Mean. Format: biochemical. Put shortly:
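Amplex red fluorescence (480 nm excitation, 615 nm emission) tracked ATP hydrolysis by smooth muscle S1 crosslinked to actin with carbodiimide/N-hydroxysuccinimide. Reactions contained 0.15 mM ATP and 100 mM KCl at pH 7.00, 22° C. IC50 came from a four-parameter logistic fit.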

T1 sequence (P02607 2-151): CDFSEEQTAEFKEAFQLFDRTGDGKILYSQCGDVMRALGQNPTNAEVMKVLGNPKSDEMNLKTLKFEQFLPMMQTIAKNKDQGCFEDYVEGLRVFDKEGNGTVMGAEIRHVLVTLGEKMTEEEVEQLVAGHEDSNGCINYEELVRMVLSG
T1 sequence (P10587 84-789): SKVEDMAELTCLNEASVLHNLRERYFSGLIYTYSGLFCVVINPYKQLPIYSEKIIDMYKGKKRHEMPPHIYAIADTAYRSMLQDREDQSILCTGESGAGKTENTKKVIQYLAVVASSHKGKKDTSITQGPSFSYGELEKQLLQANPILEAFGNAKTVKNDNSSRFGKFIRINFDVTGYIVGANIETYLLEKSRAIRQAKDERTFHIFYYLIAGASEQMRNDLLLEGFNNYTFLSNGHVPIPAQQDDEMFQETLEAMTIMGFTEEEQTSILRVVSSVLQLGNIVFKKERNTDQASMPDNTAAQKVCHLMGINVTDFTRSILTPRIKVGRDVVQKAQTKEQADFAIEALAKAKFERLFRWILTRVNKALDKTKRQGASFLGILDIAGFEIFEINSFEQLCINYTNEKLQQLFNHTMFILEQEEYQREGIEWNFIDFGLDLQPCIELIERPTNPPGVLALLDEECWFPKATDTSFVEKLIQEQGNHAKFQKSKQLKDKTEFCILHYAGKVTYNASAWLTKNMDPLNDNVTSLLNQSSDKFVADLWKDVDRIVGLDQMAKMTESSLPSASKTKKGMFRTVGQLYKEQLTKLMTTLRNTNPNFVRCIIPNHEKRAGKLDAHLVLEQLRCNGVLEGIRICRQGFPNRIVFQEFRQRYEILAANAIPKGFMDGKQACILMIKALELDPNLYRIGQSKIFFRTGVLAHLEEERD

For `N#Cc1ccccc1-c1ccc(C(=O)NCC2CCCN(CCO)C2=O)c(NCCc2cccc(F)c2)n1` (stereo not shown) [(6-(2-cyanophenyl)-2-{[2-(3-fluorophenyl)ethyl]amino}(3-pyridyl))-N-{[1-(2-hydroxyethyl)-2-oxo(3-piperidyl)]methyl}carboxamide], the IC50 turned out to be 59 nM.

On to `N#Cc1ccccc1-c1ccc(C(=O)NCC2CCCN(CCN=[N+]=[N-])C2=O)c(NCCc2cccc(F)c2)n1` (stereo not shown) [(6-(2-cyanophenyl)-2-{[2-(3-fluorophenyl)ethyl]amino}(3-pyridyl))-N-{[1-(3-diazo-3-azaprop-3-enyl)-2-oxo(3-piperidyl)]methyl}carboxamide], for which the IC50 is 412 nM.

As to `N#Cc1ccccc1-c1ccc(C(=O)NCC2(CCN=[N+]=[N-])CCCNC2=O)c(NCCc2cccc(F)c2)n1` (stereo not shown) [(6-(2-cyanophenyl)-2-{[2-(3-fluorophenyl)ethyl]amino}(3-pyridyl))-N-{[3-(3-diazo-3-azaprop-3-enyl)-2-oxo(3-piperidyl)]methyl}carboxamide], the IC50 worked out at 15800 nM.

Consider `N#Cc1ccccc1-c1ccc(C(=O)NCc2ncccc2C(F)(F)F)c(NCCc2cccc(F)c2)n1` [(6-(2-cyanophenyl)-2-{[2-(3-fluorophenyl)ethyl]amino}(3-pyridyl))-N-{[3-(trifluoromethyl)(2-pyridyl)]methyl}carboxamide], for which the half-inhibitory concentration (IC50) was determined as 603 nM.

In the case of `N#Cc1ccccc1-c1ccc(C(=O)NCc2cncc(CO)c2)c(NCCc2cccc(F)c2)n1` [(6-(2-cyanophenyl)-2-{[2-(3-fluorophenyl)ethyl]amino}(3-pyridyl))-N-{[5-(hydroxymethyl)(3-pyridyl)]methyl}carboxamide], the half-inhibitory concentration (IC50) is 81 nM.

In the case of `N#Cc1ccccc1-c1ccc(C(=O)NCc2ccc(C(F)(F)F)cn2)c(NCCc2cccc(F)c2)n1` [(6-(2-cyanophenyl)-2-{[2-(3-fluorophenyl)ethyl]amino}(3-pyridyl))-N-{[5-(trifluoromethyl)(2-pyridyl)]methyl}carboxamide], the IC50 came out at 1500 nM.

For the compound `N#Cc1ccccc1-c1ccc(C(=O)NCc2cccc(CO)n2)c(NCCc2cccc(F)c2)n1` [(6-(2-cyanophenyl)-2-{[2-(3-fluorophenyl)ethyl]amino}(3-pyridyl))-N-{[6-(hydroxymethyl)(2-pyridyl)]methyl}carboxamide], the IC50 was 37 nM.

As to `CNc1ccc(CNC(=O)c2ccc(-c3ccccc3C#N)nc2NCCc2cccc(F)c2)cn1` [(6-(2-cyanophenyl)-2-{[2-(3-fluorophenyl)ethyl]amino}(3-pyridyl))-N-{[6-(methylamino)(3-pyridyl)]methyl}carboxamide], the IC50 worked out at 298 nM.

With `N#Cc1ccccc1-c1ccc(C(=O)NCc2cccc(C(F)(F)F)n2)c(NCCc2cccc(F)c2)n1` [(6-(2-cyanophenyl)-2-{[2-(3-fluorophenyl)ethyl]amino}(3-pyridyl))-N-{[6-(trifluoromethyl)(2-pyridyl)]methyl}carboxamide], the IC50 was 604 nM.

`Cc1cc(-c2ccccc2C#N)nc(NCCc2cccc(F)c2)c1C(=O)NCc1cccnc1` [(6-(2-cyanophenyl)-2-{[2-(3-fluorophenyl)ethyl]amino}-4-methyl(3-pyridyl))-N-(3-pyridylmethyl)carboxamide]: the IC50 worked out at 1080 nM.

Take `O=C(NCc1cccnc1)c1ccc(-c2ccccc2F)nc1NCCc1cccc(F)c1` [(6-(2-fluorophenyl)-2-{[2-(3-fluorophenyl)ethyl]amino}(3-pyridyl))-N-(3-pyridylmethyl)carboxamide]: the IC50 amounted to 139 nM.

With `O=C(NCc1cccnc1)c1ccc(-c2ccc(F)c(F)c2)nc1NCCc1cccc(F)c1` [(6-(3,4-difluorophenyl)-2-{[2-(3-fluorophenyl)ethyl]amino}(3-pyridyl))-N-(3-pyridylmethyl)carboxamide], the IC50 was determined as 534 nM.

`Cn1cc(-c2ccc(C(=O)NCc3cccnc3)c(NCCc3cccc(F)c3)n2)c(C#N)n1` [(6-(3-cyano-1-methylpyrazol-4-yl)-2-{[2-(3-fluorophenyl)ethyl]amino}(3-pyridyl))-N-(3-pyridylmethyl)carboxamide]: the 50% inhibitory concentration (IC50) was found to be 47 nM.

On to `O=C(NCc1cccnc1)c1ccc(-c2cccc(F)c2)nc1NCCc1cccc(F)c1` [(6-(3-fluorophenyl)-2-{[2-(3-fluorophenyl)ethyl]amino}(3-pyridyl))-N-(3-pyridylmethyl)carboxamide], for which the IC50 came to 157 nM.

In the case of `N#Cc1cscc1-c1ccc(C(=O)NCc2cccnc2)c(NCCc2cccc(F)c2)n1` [(6-(4-cyano(3-thienyl))-2-{[2-(3-fluorophenyl)ethyl]amino}(3-pyridyl))-N-(3-pyridylmethyl)carboxamide], the IC50 was determined as 14 nM.

Take `O=C(NCc1cccnc1)c1ccc(-c2ccc(F)cc2)nc1NCCc1cccc(F)c1` [(6-(4-fluorophenyl)-2-{[2-(3-fluorophenyl)ethyl]amino}(3-pyridyl))-N-(3-pyridylmethyl)carboxamide]: the IC50 came to 198 nM.

As to `CC(=O)c1ccc(-c2ccc(C(=O)NCc3cccnc3)c(NCCc3cccc(F)c3)n2)s1` [(6-(5-acetyl(2-thienyl))-2-{[2-(3-fluorophenyl)ethyl]amino}(3-pyridyl))-N-(3-pyridylmethyl)carboxamide], the IC50 came out at 178 nM.

`N#Cc1ccc(-c2ccc(C(=O)NCc3cccnc3)c(NCCc3cccc(F)c3)n2)s1` [(6-(5-cyano(2-thienyl))-2-{[2-(3-fluorophenyl)ethyl]amino}(3-pyridyl))-N-(3-pyridylmethyl)carboxamide]: the half-inhibitory concentration (IC50) was 280 nM.

Turning to `Cn1ncc(-c2ccc(C(=O)NCc3cccnc3)c(NCCc3cccc(F)c3)n2)c1C#N` [(6-(5-cyano-1-methylpyrazol-4-yl)-2-{[2-(3-fluorophenyl)ethyl]amino}(3-pyridyl))-N-(3-pyridylmethyl)carboxamide], the IC50 is 20 nM.

As to `N#Cc1[nH]ncc1-c1ccc(C(=O)NCc2cccnc2)c(NCCc2cccc(F)c2)n1` [(6-(5-cyanopyrazol-4-yl)-2-{[2-(3-fluorophenyl)ethyl]amino}(3-pyridyl))-N-(3-pyridylmethyl)carboxamide], the IC50 was 105 nM.

As to `N#CCc1ccccc1-c1ccc(C(=O)NCc2cccnc2)c(NCCc2cccc(F)c2)n1` [(6-[2-(cyanomethyl)phenyl]-2-{[2-(3-fluorophenyl)ethyl]amino}(3-pyridyl))-N-(3-pyridylmethyl)carboxamide], the IC50 was 16400 nM.

Turning to `O=C(NCc1cccnc1)c1ccc(-c2cc(CO)ccc2Cl)nc1NCCc1cccc(F)c1` [(6-[2-chloro-5-(hydroxymethyl)phenyl]-2-{[2-(3-fluorophenyl)ethyl]amino}(3-pyridyl))-N-(3-pyridylmethyl)carboxamide], the IC50 is 1190 nM.

Turning to `NCc1ccsc1-c1ccc(C(=O)NCc2cccnc2)c(NCCc2cccc(F)c2)n1` [(6-[3-(aminomethyl)(2-thienyl)]-2-{[2-(3-fluorophenyl)ethyl]amino}(3-pyridyl))-N-(3-pyridylmethyl)carboxamide], the IC50 was found to be 55700 nM.

Consider `NCc1ccc(-c2ccc(C(=O)NCc3cccnc3)c(NCCc3cccc(F)c3)n2)s1` [(6-[5-(aminomethyl)(2-thienyl)]-2-{[2-(3-fluorophenyl)ethyl]amino}(3-pyridyl))-N-(3-pyridylmethyl)carboxamide], for which the IC50 was determined as 2700 nM.

Consider `CN(C)C(=O)CNC(=O)c1ccc(-c2ccccc2)nc1NCCc1ccccc1` [N,N-dimethyl-2-({6-phenyl-2-[(2-phenylethyl)amino](3-pyridyl)}carbonylamino)acetamide], for which the IC50 worked out at 30300 nM.

On to `O=C(NCc1ncco1)c1ccc(-c2ccccc2)nc1NCCc1ccccn1` [N-(1,3-oxazol-2-ylmethyl){6-phenyl-2-[(2-(2-pyridyl)ethyl)amino](3-pyridyl)}carboxamide], for which the 50% inhibitory concentration (IC50) came to 4900 nM.

Take `Cn1cc(-c2nc(NCCc3cccc(F)c3)c(C(=O)NCC(O)CO)cc2F)cn1` (stereo not shown) [N-(2,3-dihydroxypropyl)(5-fluoro-2-{[2-(3-fluorophenyl)ethyl]amino}-6-(1-methylpyrazol-4-yl)(3-pyridyl))carboxamide]: the IC50 amounted to 307 nM.

`O=C(NCC(O)CO)c1cc(F)c(-c2cn[nH]c2)nc1NCCc1cccc(F)c1` (stereo not shown) [N-(2,3-dihydroxypropyl)(5-fluoro-2-{[2-(3-fluorophenyl)ethyl]amino}-6-pyrazol-4-yl(3-pyridyl))carboxamide]: the IC50 turned out to be 448 nM.

For `CC(C)(N)CNC(=O)c1ccc(-c2ccccc2C#N)nc1NCCc1cccc(F)c1` [N-(2-amino-2-methylpropyl)(6-(2-cyanophenyl)-2-{[2-(3-fluorophenyl)ethyl]amino}(3-pyridyl))carboxamide], the IC50 came to 666 nM.

For `N#Cc1ccccc1-c1ccc(C(=O)NCCN)c(NCCc2cccc(F)c2)n1` [N-(2-aminoethyl)(6-(2-cyanophenyl)-2-{[2-(3-fluorophenyl)ethyl]amino}(3-pyridyl))carboxamide], the 50% inhibitory concentration (IC50) came to 2640 nM.

Take `NC(=O)CCNC(=O)c1ccc(-c2ccc(CO)s2)nc1NCCc1cccc(F)c1` [N-(2-carbamoylethyl)(2-{[2-(3-fluorophenyl)ethyl]amino}-6-[5-(hydroxymethyl)(2-thienyl)](3-pyridyl))carboxamide]: the IC50 was determined as 549 nM.

On to `N#Cc1ccccc1-c1ccc(C(=O)NCCC(N)=O)c(NCCc2cccc(F)c2)n1` [N-(2-carbamoylethyl)(6-(2-cyanophenyl)-2-{[2-(3-fluorophenyl)ethyl]amino}(3-pyridyl))carboxamide], for which the IC50 came out at 99 nM.

Take `N#Cc1ccccc1-c1ccc(C(=O)NCC(=O)NCCC(N)=O)c(NCCc2cccc(F)c2)n1` [N-(2-carbamoylethyl)-2-[(6-(2-cyanophenyl)-2-{[2-(3-fluorophenyl)ethyl]amino}(3-pyridyl))carbonylamino]acetamide]: the IC50 is 12200 nM.

As for `CC(C)(CNC(=O)c1ccc(-c2ccccc2C#N)nc1NCCc1cccc(F)c1)NC=O` [N-(2-carbonylamino-2-methylpropyl)(6-(2-cyanophenyl)-2-{[2-(3-fluorophenyl)ethyl]amino}(3-pyridyl))carboxamide], the half-maximal inhibitory concentration (IC50) worked out at 151 nM.
